Measured values published in PubChem BioAssay (NCI).
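Method: 48-hour compound exposure of cells in 96-well plates, five concentrations, linear interpolation of endpoints. GI50 is the concentration that inhibits growth by half. Definition used: TGI = concentration required for complete inhibition of growth.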

Experiments:
Experiment in all cases: DTP human tumour cell line panel, 48 h
NCI-H226 lung = tested on: NCI-H226 lung
CAKI-1 renal = tested on: CAKI-1 renal
SF-295 CNS = tested on: SF-295 CNS
OVCAR-4 ovarian = tested on: OVCAR-4 ovarian
NCI-H522 lung = tested on: NCI-H522 lung
UACC-62 melanoma = tested on: UACC-62 melanoma
SK-OV-3 ovarian = tested on: SK-OV-3 ovarian
SR leukemia = tested on: SR leukemia
PC-3 prostate = tested on: PC-3 prostate
HCT-15 colon = tested on: HCT-15 colon
MOLT-4 leukemia = tested on: MOLT-4 leukemia
SK-MEL-5 melanoma = tested on: SK-MEL-5 melanoma
HCC-2998 colon = tested on: HCC-2998 colon
RPMI-8226 leukemia = tested on: RPMI-8226 leukemia
ACHN renal = tested on: ACHN renal
MDA-MB-231 breast = tested on: MDA-MB-231 breast
SNB-19 CNS = tested on: SNB-19 CNS
SF-539 CNS = tested on: SF-539 CNS
SNB-75 CNS = tested on: SNB-75 CNS
786-0 renal = tested on: 786-0 renal
SW-620 colon = tested on: SW-620 colon
T-47D breast = tested on: T-47D breast
UACC-257 melanoma = tested on: UACC-257 melanoma
A498 renal = tested on: A498 renal
MDA-MB-435 = tested on: MDA-MB-435
IGROV1 ovarian = tested on: IGROV1 ovarian
COLO 205 colon = tested on: COLO 205 colon
K-562 leukemia = tested on: K-562 leukemia
TK-10 renal = tested on: TK-10 renal
SF-268 CNS = tested on: SF-268 CNS
U251 CNS = tested on: U251 CNS
NCI-H460 lung = tested on: NCI-H460 lung
DU-145 prostate = tested on: DU-145 prostate
HL-60(TB) leukemia = tested on: HL-60(TB) leukemia
SK-MEL-2 melanoma = tested on: SK-MEL-2 melanoma
NCI-H23 lung = tested on: NCI-H23 lung
OVCAR-3 ovarian = tested on: OVCAR-3 ovarian
NCI/ADR-RES ovarian = tested on: NCI/ADR-RES ovarian
HT29 colon = tested on: HT29 colon
MCF7 breast = tested on: MCF7 breast
OVCAR-5 ovarian = tested on: OVCAR-5 ovarian
RXF 393 renal = tested on: RXF 393 renal
LOX IMVI melanoma = tested on: LOX IMVI melanoma
BT-549 breast = tested on: BT-549 breast
UO-31 renal = tested on: UO-31 renal
SN12C renal = tested on: SN12C renal
HCT-116 colon = tested on: HCT-116 colon
HS 578T breast = tested on: HS 578T breast
OVCAR-8 ovarian = tested on: OVCAR-8 ovarian
M14 melanoma = tested on: M14 melanoma
SK-MEL-28 melanoma = tested on: SK-MEL-28 melanoma
EKVX NSCLC = tested on: EKVX NSCLC
HOP-62 NSCLC = tested on: HOP-62 NSCLC
MALME-3M melanoma = tested on: MALME-3M melanoma
HOP-92 NSCLC = tested on: HOP-92 NSCLC
KM12 colon = tested on: KM12 colon

SMILES: COc1ccc(C[C@H](N)C(=O)N[C@@H]2[C@@H](CO)OC(n3cnc4c(N(C)C)ncnc43)[C@@H]2O)cc1 (stereo not given in full)
- GI50 (NCI-H226 lung): 497 nM
- TGI (NCI-H226 lung): 1270 nM
- GI50 (CAKI-1 renal): 4440 nM
- TGI (CAKI-1 renal): 16600 nM
- GI50 (SF-295 CNS): 655 nM
- TGI (SF-295 CNS): 2210 nM
- GI50 (OVCAR-4 ovarian): 194 nM
- TGI (OVCAR-4 ovarian): 926 nM
- GI50 (NCI-H522 lung): 126 nM
- TGI (NCI-H522 lung): 493 nM
- GI50 (UACC-62 melanoma): 404 nM
- TGI (UACC-62 melanoma): 1060 nM
- TGI (SK-OV-3 ovarian): 1500 nM
- GI50 (SR leukemia): 170 nM
- TGI (SR leukemia): 1320 nM
- GI50 (PC-3 prostate): 311 nM
- TGI (PC-3 prostate): 1730 nM
- GI50 (HCT-15 colon): 6630 nM
- TGI (HCT-15 colon): 29900 nM
- GI50 (MOLT-4 leukemia): 275 nM
- TGI (MOLT-4 leukemia): 1770 nM
- GI50 (SK-MEL-5 melanoma): 287 nM
- TGI (SK-MEL-5 melanoma): 914 nM
- GI50 (HCC-2998 colon): 651 nM
- TGI (HCC-2998 colon): 1310 nM
- GI50 (RPMI-8226 leukemia): 292 nM
- TGI (RPMI-8226 leukemia): 2040 nM
- TGI (ACHN renal): 3190 nM
- GI50 (MDA-MB-231 breast): 466 nM
- TGI (MDA-MB-231 breast): 1220 nM
- GI50 (SNB-19 CNS): 339 nM
- TGI (SNB-19 CNS): 1710 nM
- GI50 (SF-539 CNS): 435 nM
- TGI (SF-539 CNS): 1950 nM
- GI50 (SNB-75 CNS): 143 nM
- TGI (SNB-75 CNS): 1230 nM
- TGI (786-0 renal): 1240 nM
- TGI (SW-620 colon): 792 nM
- GI50 (T-47D breast): 137 nM
- TGI (T-47D breast): 565 nM
- GI50 (UACC-257 melanoma): 321 nM
- TGI (UACC-257 melanoma): 1080 nM
- GI50 (A498 renal): 189 nM
- TGI (A498 renal): 1090 nM
- GI50 (MDA-MB-435): 214 nM
- TGI (MDA-MB-435): 809 nM
- GI50 (IGROV1 ovarian): 539 nM
- TGI (IGROV1 ovarian): 1730 nM
- GI50 (COLO 205 colon): 218 nM
- TGI (COLO 205 colon): 756 nM
- GI50 (K-562 leukemia): 293 nM
- TGI (K-562 leukemia): 1460 nM
- TGI (TK-10 renal): 1380 nM
- TGI (SF-268 CNS): 1180 nM
- GI50 (U251 CNS): 136 nM
- TGI (U251 CNS): 507 nM
- TGI (NCI-H460 lung): 889 nM
- GI50 (DU-145 prostate): 458 nM
- TGI (DU-145 prostate): 2530 nM
- GI50 (HL-60(TB) leukemia): 454 nM
- TGI (HL-60(TB) leukemia): 1700 nM
- TGI (SK-MEL-2 melanoma): 1230 nM
- GI50 (NCI-H23 lung): 553 nM
- TGI (NCI-H23 lung): 1820 nM
- TGI (OVCAR-3 ovarian): 535 nM
- GI50 (NCI/ADR-RES ovarian): 42700 nM
- TGI (NCI/ADR-RES ovarian): 50000 nM
- TGI (HT29 colon): 1380 nM
- GI50 (MCF7 breast): 152 nM
- TGI (MCF7 breast): 621 nM
- GI50 (OVCAR-5 ovarian): 1140 nM
- TGI (OVCAR-5 ovarian): 2940 nM
- GI50 (RXF 393 renal): 216 nM
- TGI (RXF 393 renal): 831 nM
- GI50 (LOX IMVI melanoma): 202 nM
- TGI (LOX IMVI melanoma): 839 nM
- GI50 (BT-549 breast): 588 nM
- TGI (BT-549 breast): 1830 nM
- GI50 (UO-31 renal): 1560 nM
- TGI (UO-31 renal): 6570 nM
- TGI (SN12C renal): 1310 nM
- GI50 (HCT-116 colon): 152 nM
- TGI (HCT-116 colon): 628 nM
- GI50 (HS 578T breast): 304 nM
- TGI (HS 578T breast): 2110 nM
- GI50 (OVCAR-8 ovarian): 276 nM
- TGI (OVCAR-8 ovarian): 1130 nM
- GI50 (M14 melanoma): 647 nM
- TGI (M14 melanoma): 1400 nM
- GI50 (SK-MEL-28 melanoma): 479 nM
- TGI (SK-MEL-28 melanoma): 1130 nM
- GI50 (EKVX NSCLC): 614 nM
- TGI (EKVX NSCLC): 2550 nM
- TGI (HOP-62 NSCLC): 1100 nM
- GI50 (MALME-3M melanoma): 637 nM
- TGI (MALME-3M melanoma): 1390 nM
- GI50 (HOP-92 NSCLC): 120 nM
- TGI (HOP-92 NSCLC): 510 nM
- GI50 (KM12 colon): 363 nM
- TGI (KM12 colon): 1080 nM
